Measurements reported in paper PMC12500448 (Frontiers in Pharmacology, 2025).
Read-outs that look alike come from different tables or passages of the source. One block for each compound: values may come before it.

What was measured:
[1] = tested on: rat liver microsomes (RLM); assay: Screening of 10 drugs for inhibition of quetiapine metabolism (formation of N-desalkylquetiapine) in RLM; assay type: in vitro ADME; conditions: RLM 0.3 mg/mL, drug 100 μM, quetiapine at Km
Method: (§1) 200 μL enzymatic kinetic incubation system was adjusted according to the measurement purpose with the corresponding incubation conditions. […] The mixture without NADPH was pre-incubated at 37 °C in a water bath for 5 min, then 10 μL NADPH (20 mM) was added to initiate the reaction. Following a further 30 min incubation, the reaction was terminated by freezing at −80 °C. Prior to sample thawing, 400 μL acetonitrile was added to precipitate proteins, and 20 μL lurasidone (200 ng/mL) was added as IS. After complete dissolution of the samples, they were vortexed for 2 min and centrifuged for 10 min (13,000 rpm), then the supernatants were taken for UPLC-MS/MS detection and analysis.

[2] = Pharmacokinetics of quetiapine and N-desalkylquetiapine in rats with or without nicardipine; assay type: in vivo, Sprague-Dawley rats; conditions: rat; for CL/F: read-out: CLz/F (converted)
Method: Due to the similarity between their hepatic enzyme system and humans, Sprague-Dawley male rats are widely used in pharmacokinetics ([Martignoni et al., 2006]; [Riccardi et al., 2018]). This pharmacokinetic study was conducted on eight healthy male Sprague-Dawley rats provided by the Animal Experiment Center of the First Affiliated Hospital of Wenzhou Medical University (Zhejiang, China). Animals were housed in an environment with a temperature of 20 °C–26 °C, relative humidity of 55% ± 15%, and a light-dark cycle of 12 h/day, in strict following the guidelines for the care and use of laboratory animals by the National Research Council. The research protocol was adhered to the ARRIVE guidelines and was approved by the Experimental Animal Ethics Committee of the First Affiliated Hospital of Wenzhou Medical University (WYYY-IACUC-AEC-2023–064). Before the formal experiment, in order to mitigate the influence of food on drug absorption, Sprague-Dawley rats were fasted for 12 h and then randomly divided into two groups. Nicardipine and quetiapine are dissolved using corn oil. […] Following centrifugation at 8,000 rpm for 10 min, 100 μL of plasma supernatant was precisely taken into a new clean and dry 1.5 mL EP tube, where 300 μL acetonitrile and 10 μL IS working solution (200 ng/mL) were added, and after vortexing and centrifugation, the supernatants were taken for injection and analysis.

[3] = design: method as in Chen et al., 2024; conditions: in vivo; ref Chen et al., 2024; cited from earlier work
[4] = tested on: human liver microsomes (HLM); conditions: 1-200 μM quetiapine
Method: as §1
(§2) The Michaelis-Menten curves, IC50 curves, Lineweaver–Burk plots, and the mean plasma concentration–time curves were generated using GraphPad Prism software (version 9.5; GraphPad Software Inc., San Diego, CA). The pharmacokinetic parameters were derived using the non-compartmental model analysis with Drug and Statistics software (version 3.0 software, Mathematical Pharmacology Professional Committee of China, Shanghai, China).

[5] = tested on: rat liver microsomes (RLM); conditions: 1-200 μM quetiapine
Method: as §1, §2

[6] = treatment of refractory depression; ref Reif et al., 2023; cited from earlier work
[7] = metabolite N-desalkylquetiapine in plasma, quetiapine 15 mg/kg + nicardipine 4 mg/kg by gavage
[8] = metabolite N-desalkylquetiapine in plasma, quetiapine 15 mg/kg by gavage alone
[9] = male, Sprague-Dawley, plasma, po, 15 mg/kg, quetiapine in plasma, quetiapine 15 mg/kg + nicardipine 4 mg/kg by gavage 30 min before
[10] = male, Sprague-Dawley, plasma, po, 15 mg/kg, quetiapine in plasma, quetiapine 15 mg/kg by gavage alone

Structure (SMILES): O=c1c(O)c(-c2ccc(O)c(O)c2)oc2cc(O)cc(O)c12 [quercetin]
inhibition rate against quetiapine metabolism [1]: 61.47%

AUC0−∞ [2, 7]: 80.29 ± 27.62 ng·h/mL | AUC(0-t) [2, 7]: 70.19 ± 22.75 ng·h/mL | CLz/F [2, 7]: 209.99 ± 92.45 L/h/kg | Cmax [2, 7]: 14.98 ± 11.59 ng/mL | Tmax [2, 7]: 41.4 ± 33 min | t1/2 [2, 7]: 8.54 ± 5.49 h | AUC0−∞ [2, 8]: 161.47 ± 62.64 ng·h/mL | AUC(0-t) [2, 8]: 160.62 ± 63.16 ng·h/mL | CLz/F [2, 8]: 101.52 ± 30.08 L/h/kg | Cmax [2, 8]: 50.66 ± 32.77 ng/mL | Tmax [2, 8]: 18.6 ± 7.8 min | t1/2 [2, 8]: 3.19 ± 1.76 h
Structure (SMILES): c1ccc2c(c1)N=C(N1CCNCC1)c1ccccc1S2 [N-desalkylquetiapine]

Structure (SMILES): COC(=O)C1=C(C)NC(C)=C(C(=O)OCCN(C)Cc2ccccc2)C1c1cccc([N+](=O)[O-])c1 (stereo not shown) [nicardipine]
increase of AUC0−∞ of almonertinib [3]: 0.87 fold | increase of AUC(0-t) of almonertinib [3]: 0.95 fold

Km [4]: 50.8 µM | Km [5]: 48.8 µM | AUC(0-inf) [2, 9]: 108 ± 31.4 ng·h/mL | half-life [2, 9]: 310 ± 169 min | AUC(0-t) ([2]; male, Sprague-Dawley, plasma, po, 15 mg/kg, quetiapine in plasma, quetiapine 15 mg/kg + nicardipine 4 mg/kg by gavage 30 min before, read-out: AUC(0-t)): 106 ± 30.3 ng·h/mL | CL/F [2, 9]: 2460 mL/min/kg | Cmax ([2]; male, Sprague-Dawley, plasma, po, 15 mg/kg, quetiapine in plasma, quetiapine 15 mg/kg + nicardipine 4 mg/kg by gavage 30 min before, read-out: Cmax): 28.8 ± 10.7 ng/mL | Tmax ([2]; male, Sprague-Dawley, plasma, po, 15 mg/kg, quetiapine in plasma, quetiapine 15 mg/kg + nicardipine 4 mg/kg by gavage 30 min before, read-out: Tmax): 52.8 ± 31.2 min | AUC(0-inf) [2, 10]: 38.1 ± 6.91 ng·h/mL | half-life [2, 10]: 307 ± 214 min | AUC(0-t) ([2]; male, Sprague-Dawley, plasma, po, 15 mg/kg, quetiapine in plasma, quetiapine 15 mg/kg by gavage alone, read-out: AUC(0-t)): 36 ± 5.48 ng·h/mL | CL/F [2, 10]: 6730 mL/min/kg | Cmax ([2]; male, Sprague-Dawley, plasma, po, 15 mg/kg, quetiapine in plasma, quetiapine 15 mg/kg by gavage alone, read-out: Cmax): 12 ± 2.28 ng/mL | Tmax ([2]; male, Sprague-Dawley, plasma, po, 15 mg/kg, quetiapine in plasma, quetiapine 15 mg/kg by gavage alone, read-out: Tmax): 56.4 ± 31.2 min
Structure (SMILES): OCCOCCN1CCN(C2=Nc3ccccc3Sc3ccccc32)CC1 [quetiapine]
incidence of adverse reactions [6]: 78.0% | incidence of serious adverse reactions [6]: 5.7%
